Laboratory results reported in US20200054608A1, “ALPHA ADRENERGIC AGONISTS FOR THE TREATMENT OF TISSUE TRAUMA” (Allergan, Inc., priority 2013, published 2020).

Key:
SKH1 hairless mice [1] = assay: UVB-induced sunburn model: histological examination of skin samples 48 hr following UVB exposure; format: in vivo; settings: for outcome of healing (overall healing, histology) / mice with overall epidermal healing fair to good: 48 hr; for outcome of healing (overall healing, histology): hydrochloride; for mice with overall epidermal healing fair to good: vehicle 0%
Protocol: (§1) A xenon arc lamp (Newport Corp, USA) was used as a source of UVB. SKH1 hairless mice, lying on their stomachs with their left sides covered, were exposed to 120 mJ/cm2 UVB radiation. Regions of back skin were treated topically with oxymetazoline hydrochloride 0.5% gel at 20 min, 4 hr or 8 hr post-UVB. An additional group had the vehicle applied topically at 20 min post UVB exposure. Erythema on the exposed and unexposed back was measured using a chromameter (Konica Minolta) at 2 and 4 hr post-UVB exposure. Skin samples were collected 48 hr following UVB exposure and examined histologically to assess the extent of injury.

SKH1 hairless mice [2] = assay: UVB-induced sunburn model: erythema on back skin measured with a chromameter; format: in vivo
Protocol: as §1

Substance: oxymetazoline hydrochloride
- epidermal separation (SKH1 hairless mice [1]; 0.5% topical applied 20 minutes post UVB, 48 hours, n=6): reduced the occurrence and/or severity of epidermal separation
- outcome of healing (overall healing, histology) (SKH1 hairless mice [1]; 0.5% topical applied 20 minutes post UVB, vs vehicle controls): potentially improved the outcome
- outcome of healing (overall healing, histology) (SKH1 hairless mice [1]; 0.5% topical applied 20 minutes post UVB, vs vehicle controls, listed as oxymetazoline): slightly improved the outcome of healing
- epidermal separation (SKH1 hairless mice [1]; 0.5% topical applied 4 hours post UVB, 48 hours, n=6): reduced the occurrence and/or severity of epidermal separation
- outcome of healing (overall healing, histology) (SKH1 hairless mice [1]; 0.5% topical applied 4 hours post UVB, vs concurrent and historical vehicle controls): more positive outcome
- outcome of healing (overall healing, histology) (SKH1 hairless mice [1]; 0.5% topical applied 4 hours post UVB, vs concurrent and historical vehicle controls, listed as oxymetazoline): improved the outcome of healing
- adaptive response in histological sections (epidermal proliferation, adaptive hyperplasia) (SKH1 hairless mice [1]; 0.5% topical applied 8 hours following injury, skin collected at 48 hours, vs vehicle-treated): greater degree of a positive adaptive response
- epidermal hyperplasia (adaptive healing response) (SKH1 hairless mice [1]; 0.5% topical applied 8 hours following the injury, 48 hours, n=6): resulted in more individuals who had progressed to advanced healing
- epidermal separation (SKH1 hairless mice [1]; 0.5% topical applied 8 hours post UVB, 48 hours, n=6): reduced the occurrence and/or severity of epidermal separation
- outcome of healing (overall healing, histology) (SKH1 hairless mice [1]; 0.5% topical applied 8 hours post UVB, vs concurrent and historical vehicle controls): more positive outcome
- outcome of healing (overall healing, histology) (SKH1 hairless mice [1]; 0.5% topical applied 8 hours post UVB, vs concurrent and historical vehicle controls, listed as oxymetazoline): improved the outcome of healing
- mice with overall epidermal healing fair to good (SKH1 hairless mice [1]; 0.5% topical applied at 20 minutes post UVB, n=6): 33%
- mice with overall epidermal healing fair to good (SKH1 hairless mice [1]; 0.5% topical applied at 4 hours post UVB, n=6): 50%
- mice with overall epidermal healing fair to good (SKH1 hairless mice [1]; 0.5% topical applied at 8 hours post UVB, n=6): 67%
- inhibition of erythema (SKH1 hairless mice [2]; 0.5% topical gel applied 20 minutes following 120 mJ/cm2 UVB, 2 hr timepoint, p<0.001): almost completely inhibited the erythema
- inhibition of erythema (SKH1 hairless mice [2]; 0.5% topical gel applied 20 minutes following UVB, 4 hr post-UVB exposure): no inhibition of the erythema
